Test [1] has as its system GCF collagenase and gingival disease in diabetic twins. The test is described as follows: Human gingival crevicular fluid (GCF) study, diabetic twin brothers. Format: in vivo. Conditions: 7 days of treatment. The protocol:
In a separate study involving humans, gingival crevicular fluid (GCF) samples were collected on filter paper strips inserted into 8 interproximal pockets of selected teeth in the maxillary arch of two twin brothers with juvenile-onset (insulin-dependent) diabetes mellitus. Fluid volume was immediately determined on a modified Periotron (Model 6000, Harco Electronics Ltd., Winnipeg, Canada); then incubated with 10 μl (^3 H-methyl) collagen (20,675 DPM) and 70 μl buffer (50 mM Tris-HCl, pH 7.8, containing 0.2 M sodium chloride and 5 mM calcium chloride). The GCF samples (or reagent blanks or trypsin controls) were incubated at 27° C. for 18 hours with gentle shaking. The reaction was stopped and undigested collagen precipitated by adding 10 μl 0.1 M phenanthroline in dioxane/water (1:1, v/v), 10 μl of nonradioactive methylated carrier collagen (2 mg/ml) in 50 mM Tris-HCl buffer containing 1M NaCl (pH 7.0), and 100 μl dioxane. After mixing, the radiolabeled collagen degradation products were collected by filtration and counted in a liquid scintillation spectrometer (Golub, et. al., 1976, J. Dent. Res., 55, 1049). Using this technique, the reaction blank (no enzyme or GCF added) released about 10% of the total substrate counts; 2-20 ng bacterial collagenase produced a linear increase in the release of radioactive counts from the ^3 H-collagen substrate (the 20 ng level of enzyme degraded 60% of the collagen substrate); and 50 ng trypsin released less than 1% of the counts above blank values. GCF collagenase activity was expressed as units of equivalent activity of vertebrate collagenase (obtained from New England Nuclear, Cat. No. NEK-016); 1 unit was operationally defined as the amount of enzyme that degrades 1 μg of collagen per hour at 27° C.
Four additional GCF samples were collected from other maxillary pockets of the same diabetic twin brothers on filter paper strips, their volume determined (see above), and collagenolytic activity assessed using the same procedure described above but with a different substrate (10 μl of (^3 H-propionate) collagen, NET-660, New England Nuclear Corp., Boston, Mass., 302,000 DPM).
Half of the 12 GCF samples per subject were activated by pretreatment with 1.04 uM trypsin followed by the addition of a 5-fold molar excess of soybean trypsin inhibitor. Samples were selected to be treated or not treated with trypsin by matching them for Gingival Index (Loe and Silness, Acta. Odont. Scand., 21, 533-551 (1967)), GCF flow, and for pocket depth; the clincal parameters (GI, PD) were measured immediately after GCF collection. All measurements were carried out immediately before antibiotic coverage and after 7 days of treatment with either pencillin G (lg. per day; patient three) or the tetracycline minocycline (200 mg/day; patient one).

Test [2] has as its system gingival collagenolytic enzyme activity of diabetic rats. The test is described as follows: Collagenolytic enzyme activity in extracts of gingiva from diabetic rats given minocycline. Format: in vivo, rat. Conditions: for Gingival Collagenolytic Activity (% C^14-Collagen Degraded): diabetes + oral daily drug. The protocol:
Rats were made diabetic chemically with the agent streptozotocin. Some of the diabetic rats (half were administered minocycline orally on a daily basis) were killed 15 days, or 28 days, or 56 days after inducing diabetes and the gingiva were dissected, the tissues were extracted, and the extracts partially purified by ammonium sulfate precipitation. The partially purified enzyme preparation from the gingiva of a group of non-diabetic (control) rats, and the diabetic rats, was incubated at 37° C. in vitro with radiolabeled collagen fibrils to assess collagenolytic ennzyme activity.

The mark [3] stands for this setting: penicillin G 1 g per day (P. D.) or minocycline 200 mg/day (K. D.).

The values below come from patent US4666897A, “Inhibition of mammalian collagenolytic enzymes by tetracyclines” (Research Foundation of State University, priority 1983, dated 1987).

With `CN(C)c1ccc(O)c2c1C[C@H]1C[C@H]3[C@H](N(C)C)C(O)=C(C(N)=O)C(=O)[C@@]3(O)C(O)=C1C2=O` [minocycline, Minocycline], in test [1] (setting [3]), the GCF flow entry is “significant reductions”; the “Gram-positive and Gram-negative organisms in the pockets” value was “marked reduction in Gram-negative”; the “active GCF collagenase” value is given as “significant reductions”; the pocket depth entry is “no decrease”. The “total GCF collagenase (after trypsin pretreatment)” value in test [1] (setting [3]) was “significant reductions”. The “Gingival Index (G. I.)” value in test [1] (penicillin G 1 g per day (patient three) or minocycline 200 mg/day (patient one)) was “significant reductions”. The “% Inhibition of Collagenolytic Activity by Minocycline” value (from here on “% Inhibition”) in test [2] (15 days) was 42.5%. Further, the “% Inhibition” value in test [2] (28 days) was 72.7%. Also, the “% Inhibition” value in test [2] (56 days) amounted to 77.2%. Further, the “Gingival Collagenolytic Activity (% C^14-Collagen Degraded)” value in test [2] (15 days, untreated diabetic 50.4, control 9.1) was 29.0%. The “Gingival Collagenolytic Activity (% C^14-Collagen Degraded)” value in test [2] (28 days, untreated diabetic 63.0, control 9.1) is reported as 17.2%. In addition, the “Gingival Collagenolytic Activity (% C^14-Collagen Degraded)” value in test [2] (56 days, untreated diabetic 47.8, control 9.1) stood at 10.9%.
